According to patent publication US11548875B2, “Inhibitor compounds for male contraception” (University of Washington, priority 2018, dated 2023):

What follows are molecules tested against T1, ALDH2 (Homo sapiens, UniProt P05091) (assay: Purified ALDH2 assay with propanal, NADH fluorescence). Conditions: purified enzyme.
T1 construct: histidine-tag (N); made in house; host or cells: bacterial expression (pETite vector, IPTG induction)
T1 sequence (P05091 18-517): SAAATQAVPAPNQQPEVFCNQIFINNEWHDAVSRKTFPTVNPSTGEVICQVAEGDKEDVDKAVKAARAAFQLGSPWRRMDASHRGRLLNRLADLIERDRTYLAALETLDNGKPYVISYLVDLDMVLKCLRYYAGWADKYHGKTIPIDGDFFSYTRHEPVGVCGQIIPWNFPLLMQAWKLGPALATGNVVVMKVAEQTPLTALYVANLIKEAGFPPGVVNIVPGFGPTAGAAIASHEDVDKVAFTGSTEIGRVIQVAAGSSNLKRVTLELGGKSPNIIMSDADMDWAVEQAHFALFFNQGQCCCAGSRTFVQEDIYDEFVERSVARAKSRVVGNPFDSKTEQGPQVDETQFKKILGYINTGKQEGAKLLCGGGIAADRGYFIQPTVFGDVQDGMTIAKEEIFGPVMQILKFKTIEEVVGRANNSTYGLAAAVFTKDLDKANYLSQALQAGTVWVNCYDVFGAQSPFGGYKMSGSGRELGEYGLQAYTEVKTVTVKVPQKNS
Type: biochemical
Outline: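 His-tagged human ALDH2 expressed in bacteria and purified. 2 μg enzyme incubated with 20 μM propanal and varying inhibitor concentrations at room temperature. Activity read as NADH fluorescence (Ex 350/Em 460 nm), with initial velocity from two consecutive readings over 1 minute.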

Row | SMILES | IC50
1 | O=Cc1cn(-c2ccccc2)nc1-c1ccc(O)cc1 [Cmpd 34] | 18.2 µM
2 | CS(=O)(=O)c1ccc(-c2nn(-c3ccccc3)cc2C(=O)Nc2cccc(F)c2)cc1 [Compound 178, 3-(4-(Methylsulfonyl)phenyl)-N-(3-fluorophenyl)-1-phenyl-1H-pyrazole-4-carboxamide] | 20.9 µM
3 | CS(=O)(=O)c1ccc(-c2nn(-c3ccccc3)cc2C(=O)Nc2cccc(O)c2)cc1 [Compound 211, 3-(4-(Methylsulfonyl)phenyl)-N-(3-hydroxyphenyl)-1-phenyl-1H-pyrazole-4-carboxamide] | 15.5 µM
4 | CS(=O)(=O)c1ccc(-c2nn(-c3ccccc3)cc2C(=O)Nc2cccc(Cl)c2)cc1 [Compound 219, 3-(4-(Methylsulfonyl)phenyl)-N-(3-chlorophenyl)-1-phenyl-1H-pyrazole-4-carboxamide] | > 25 µM
5 | CCS(=O)(=O)c1ccc(-c2nn(-c3ccccc3)cc2C(=O)Nc2cccc(F)c2)cc1 [Compound 223, 3-(4-(Ethylsulfonyl)phenyl)-N-(3-fluorophenyl)-1-phenyl-1H-pyrazole-4-carboxamide] | 133 µM
6 | CS(=O)(=O)c1ccc(-c2nn(-c3ccccc3)cc2C(=O)Nc2cccc(F)c2O)cc1 [Compound 231, N-(3-Fluoro-2-hydroxyphenyl)-3-[4-(methylsulfonyl)phenyl]-1-phenyl-1H-pyrazole-4-carboxamide] | 67.3 µM
7 | CS(=O)(=O)c1ccc(-c2nn(-c3ccc(Cl)cc3)cc2C(=O)Nc2ccccc2O)cc1 [Compound 233, N-(2-Hydroxyphenyl)-3-[4-(methylsulfonyl)phenyl]-1-(4-chloropheny)-1H-pyrazole-4-carboxamide] | 87.2 µM
8 | CS(=O)(=O)c1ccc(-c2nn(-c3ccc(F)cc3)cc2C(=O)Nc2cccc(F)c2)cc1 [Compound 241, N-(3-Fluorophenyl)-3-[4-(methylsulfonyl)phenyl]-1-(4-fluorophenyl)-1H-pyrazole-4-carboxamide] | 16.6 µM
9 | CS(=O)(=O)c1ccc(-c2nn(-c3ccc(OC(F)(F)F)cc3)cc2C(=O)Nc2cccc(F)c2)cc1 [Compound 258, N-(3-Fluorophenyl)-1-(4-trifluoromethoxypheny)-3-[4-(methylsulfonyl)phenyl]-1H-pyrazole-4-carboxamide] | 100 µM
10 | CS(=O)(=O)c1ccc(-c2nn(-c3ccc(C#N)cc3)cc2C(=O)Nc2cccc(C(F)(F)F)c2)cc1 [Compound 262, 1-(4-Cyanophenyl)-N-(3-trifluoromethylphenyl)-3-[4-(methylsulfonyl)phenyl]-1H-pyrazole-4-carboxamide] | 16.7 µM
11 | CS(=O)(=O)c1ccc(-c2nn(-c3cccc(F)c3)cc2C(=O)Nc2cccc(C(F)(F)F)c2)cc1 [Compound 266, 1-(3-Fluorophenyl)-N-(3-trifluoromethylphenyl)-3-[4-(methylsulfonyl)phenyl]-1H-pyrazole-4-carboxamide] | 100 µM
12 | CS(=O)(=O)c1ccc(-c2nn(-c3cccc(C#N)c3)cc2C(=O)Nc2cccc(F)c2)cc1 [Compound 268, 1-(3-Cyanophenyl)-N-(3-fluorophenyl)-3-[4-(methylsulfonyl)phenyl]-1H-pyrazole-4-carboxamide] | 83.7 µM
13 | CS(=O)(=O)c1ccc(-c2nn(-c3cccc(C#N)c3)cc2C(=O)Nc2ccc(F)c(F)c2)cc1 [Compound 269, 1-(3-Cyanophenyl)-N-(3,4-difluorophenyl)-3-[4-(methylsulfonyl)phenyl]-1H-pyrazole-4-carboxamide] | 67.7 µM
14 | CCc1ccc(C(=O)N2CCN(c3ccc([N+](=O)[O-])c(N4CCCC4)c3)CC2)s1 [Compound 323, {4-[4-Nitro-3-(pyrrolidin-1-yl)phenyl]piperazin-1-yl}(5-ethylthiophen-2-yl)methanone] | 52 µM
15 | CCOc1ccsc1C(=O)N1CCN(c2ccc([N+](=O)[O-])c(N3CCCC3)c2)CC1 [Compound 326, {4-[4-Nitro-3-(pyrrolidin-1-yl)phenyl]piperazin-1-yl}(3-ethoxythiophen-2-yl)methanone] | 97.3 µM
